Data on 15 compounds can be found in US9227971B2, “Pyrazolo[1,5-a]pyrimidine compounds as mTOR inhibitors” (Merck Sharp & Dohme Corp., priority 2010, dated 2016).

Assay [1] deals with phosphorylated AKT Ser473 (pAKT S473), mTORC2 activity, PC3 cells. The assay can be described thus: mTOR target engagement assay, immunofluorescent cell-based, pAKT S473 readout (mTORC2 activity). The procedure, abridged:
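After blocking, cells were stained overnight at 4 °C with anti-pAKT S473 antibody, then a fluorescent secondary; inhibition was read as reduced fluorescence intensity.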

Assay [2] relates to phosphorylated 4E-BP1 Thr37/46 (p4E-BP1 Thr37/46), mTORC1 activity, PC3 cells. The assay can be described thus: mTOR target engagement assay, immunofluorescent cell-based, p4E-BP1 Thr37/46 readout (mTORC1 activity). Particulars: read-out: p4E-BP1 Thr37/46 IC50. The procedure, abridged: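 Seed PC3 cells overnight; treat with compound dilutions for ninety minutes at 37° C; fix with glyoxal and block; stain with anti-p4E-BP1 Thr37/46 overnight at 4° C, then fluorescent secondary; read fluorescence and fit IC50 against DMSO-only controls.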

Setting [3] is: Homo sapiens, PC-3, Table 3-1, PC3 cells.
[4] abbreviates: Homo sapiens, PC-3, Table 7-2, PC3 cells.
[5] abbreviates: Homo sapiens, PC-3, PC3 cells, compound treatment ninety minutes at 37° C.
Where [6] appears, read: Homo sapiens, PC-3, Table 6-1, PC3 cells.

Where two headings read alike, the source gives them in different places.

“1-((1R,3s,5S)-3-(7-amino-3-(6-(4-methoxy-(D3)-phenyl)pyridin-3-yl)-6-(methylsulfonyl)pyrazolo[1,5-a]pyrimidin-5-yl)-8-azabicyclo[3.2.1]octan-8-yl)-2-hydroxyethanone [Compound 3.67]”: the IC50 in assay [1] (Table 3-1, PC3 cells) was 1 to 100 nM; in assay [2] (Table 3-1, PC3 cells), 100 to 1000 nM.

Take `CS(=O)(=O)c1c([C@@H]2C[C@H]3CC[C@@H](C2)N3C(=O)c2nnc[nH]2)nc2c(-c3ccc(-c4ccc5c(c4)OCO5)nc3)cnn2c1N` [Compound 3.52, ((1R,3s,5S)-3-(7-amino-3-(6-(benzo[d][1,3]dioxol-5-yl)pyridin-3-yl)-6-(methylsulfonyl)pyrazolo[1,5-a]pyrimidin-5-yl)-8-azabicyclo[3.2.1]octan-8-yl)(4H-1,2,4-triazol-3-yl)methanone]: the IC50 in assay [1] (setting [3]) and in assay [2] (setting [3]) was 1 to 100 nM throughout.

As to `CS(=O)(=O)c1c([C@H]2CC3CC[C@H](C2)N3C(=O)c2cn[nH]n2)nc2c(-c3cnn(-c4ccc(F)cc4)c3)cnn2c1N` [Compound 3.178, ((1R,3s,5S)-3-(7-amino-3-(1-(4-fluorophenyl)-1H-pyrazol-4-yl)-6-(methylsulfonyl)pyrazolo[1,5-a]pyrimidin-5-yl)-8-azabicyclo[3.2.1]octan-8-yl)(2H-1,2,3-triazol-4-yl)methanone], the IC50 in assay [1] (setting [3]) and in assay [2] (setting [3]) was 1000 to 10000 nM each time.

For the compound `CC(C)(O)c1ccc(-c2cnn3c(N)c(S(C)(=O)=O)c([C@@H]4C[C@H]5CC[C@@H](C4)N5C(=O)c4nnc[nH]4)nc23)cn1` [Compound 7.27, ((1R,3s,5S)-3-(7-amino-3-(6-(2-hydroxypropan-2-yl)pyridin-3-yl)-6-(methylsulfonyl)pyrazolo[1,5-a]pyrimidin-5-yl)-8-azabicyclo[3.2.1]octan-8-yl)(1H-1,2,4-triazol-5-yl)methanone], the IC50 in assay [1] (setting [4]) and in assay [2] (setting [4]) was 1 to 100 nM in each case.

For the compound `[2H]C1(O)CCCc2cc(-c3cnn4c(N)c(C(C)=O)c([C@H]5CC6CC[C@H](C5)N6C(=O)c5nnc[nH]5)nc34)cnc21` (stereo partly drawn) [Compound 7.57, DEUTERATED-(3- EXO)-3-[6-ACETYL-7- AMINO-3-(5,6,7,8- TETRAHYDRO-8- HYDROXY-3- QUINOLINYL- (D))PYRAZOLO[1,5- a]PYRIMIDIN-5-YL]-8- (4H-1,2,4-TRIAZOL-3- YLCARBONYL)-8- AZABICYCLO[3.2.1] OCTANE], the IC50 in assay [1] (Homo sapiens, PC-3, PC3 cells) was 100 to 1000 nM; in assay [2] (Homo sapiens, PC-3, PC3 cells) it was 1 to 100 nM.

For the compound `CNC(=O)Nc1ccc(-c2cnn3c(N)c(C(C)=O)c([C@@H]4C[C@H]5CC[C@@H](C4)N5C(=O)c4ncn[nH]4)nc23)cn1` [Compound 8.75, 1-(5-(5-((1R,3s,5S)-8-(1H-1,2,4-triazole-5-carbonyl)-8-azabicyclo[3.2.1]octan-3-yl)-6-acetyl-7-aminopyrazolo[1,5-a]pyrimidin-3-yl)pyridin-2-yl)-3-methylurea], the IC50 in assay [1] (Homo sapiens, PC-3, PC3 cells) fell in the range of 1 to 100 nM; in assay [2] (Homo sapiens, PC-3, PC3 cells), 100 to 1000 nM.

Take `Nc1cc([C@@H]2C[C@H]3CC[C@@H](C2)N3C(=O)c2nnc[nH]2)nc2c(-c3cnc4[nH]ccc4c3)cnn12` [Compound 2.13, ((1R,3s,5S)-3-(7-amino-3-(1H-pyrrolo[2,3-b]pyridin-5-yl)pyrazolo[1,5-a]pyrimidin-5-yl)-8-azabicyclo[3.2.1]octan-8-yl)(1H-1,2,4-triazol-5-yl)methanone]: the IC50 in assay [1] (setting [5]) and in assay [2] (setting [5]) was 1000 to 10000 nM throughout.

For the compound `COc1ccc(-c2ccc(-c3cnn4c(N)c(C(C)=O)c([C@H]5C[C@H]6CC[C@@H](C5)N6C(=O)c5nnc[nH]5)nc34)cn2)cc1F` [Compound 1.1.54, 1-(5-((1R,3r,5S)-8-(4H-1,2,4-triazole-3-carbonyl)-8-azabicyclo[3.2.1]octan-3-yl)-7-amino-3-(6-(3-fluoro-4-methoxyphenyl)pyridin-3-yl)pyrazolo[1,5-a]pyrimidin-6-yl)ethanone], the IC50 in assay [1] (setting [5]) and in assay [2] (setting [5]) was 100 to 1000 nM each time.

`Cc1ccc(-c2ccc(-c3cnn4c(N)c(S(C)(=O)=O)c([C@@H]5C[C@H]6CC[C@@H](C5)N6C(=O)c5nnc[nH]5)nc34)cn2)cc1F` [Compound 3.45, ((1R,3s,5S)-3-(7-amino-3-(6-(3-fluoro-4-methylphenyl)pyridin-3-yl)-6-(methylsulfonyl)pyrazolo[1,5-a]pyrimidin-5-yl)-8-azabicyclo[3.2.1]octan-8-yl)(4H-1,2,4-triazol-3-yl)methanone]: the IC50 in assay [1] (setting [3]) and in assay [2] (setting [3]) was 1 to 100 nM in each case.

For the compound `COc1ccc(-c2ccc(-c3cnn4c(N)c(C5CC5)c([C@@H]5C[C@H]6CC[C@@H](C5)N6C(=O)c5nnc(N)[nH]5)nc34)cn2)cc1F` [Compound 4.27, (5-amino-4H-1,2,4-triazol-3-yl)((1R,3a,5S)-3-(7-amino-6-cyclopropyl-3-(6-(3-fluoro-4-methoxyphenyl)pyridin-3-yl)pyrazolo[1,5-a]pyrimidin-5-yl)-8-azabicyclo[3.2.1]octan-8-yl)methanone], the IC50 in assay [1] (setting [5]) and in assay [2] (setting [5]) was 1 to 100 nM throughout.

Take `CC(C)(O)c1ncc(-c2cnn3c(N)c(S(C)(=O)=O)c([C@@H]4C[C@H]5CC[C@@H](C4)N5C(=O)c4nnc[nH]4)nc23)cn1` [Compound 3.152, ((1R,3s,5S)-3-(7-amino-3-(2-(2-hydroxypropan-2-yl)pyimidin-5-yl)-6-(methylsulfonyl)pyrazolo[1,5-a]pyrimidin-5-yl)-8-azabicyclo[3.2.1]octan-8-yl)(4H-1,2,4-triazol-3-yl)methanone]: the IC50 in assay [1] (setting [3]) and in assay [2] (setting [3]) was 1000 to 10000 nM each time.

With `CC(=O)c1c([C@@H]2C[C@H]3CC[C@@H](C2)N3S(=O)(=O)c2nnc[nH]2)nc2c(-c3ccc(-c4ccccc4)nc3)cnn2c1N` [Compound 1.1.42, 1-(5-((1R,3s,5S)-8-(4H-1,2,4-triazol-3-ylsulfonyl)-8-azabicyclo[3.2.1]octan-3-yl)-7-amino-3-(6-phenylpyridin-3-yl)pyrazolo[1,5-a]pyrimidin-6-yl)ethanone], the IC50 in assay [1] (setting [5]) and in assay [2] (setting [5]) was 100 to 1000 nM in each case.

Take `Nc1c(C2CC2)c([C@@H]2C[C@H]3CC[C@@H](C2)N3C(=O)CO)nc2c(-c3ccc(-c4ncc[nH]4)c(F)c3)cnn12` [Compound 6.37, 1-((1R,3s,5S)-3-(7-amino-6-cyclopropyl-3-(3-fluoro-4-(1H-imidazol-2-yl)phenyl)pyrazolo[1,5-a]pyrimidin-5-yl)-8-azabicyclo[3.2.1]octan-8-yl)-2-hydroxyethanone]: the IC50 in assay [1] (setting [6]) and in assay [2] (setting [6]) was 1 to 100 nM each time.

With `CC(=O)c1c([C@@H]2C[C@H]3CC[C@@H](C2)N3C#N)nc2c(-c3ccc(-c4ccccc4)nc3)cnn2c1N` [Compound 8.71, (1R,3s,5S)-3-(6-acetyl-7-amino-3-(6-phenylpyridin-3-yl)pyrazolo[1,5-a]pyrimidin-5-yl)-8-azabicyclo[3.2.1]octane-8-carbonitrile], the IC50 lay within 100 to 1000 nM in assay [1] (Homo sapiens, PC-3, PC3 cells) and 100 to 1000 nM in assay [2] (Homo sapiens, PC-3, PC3 cells).

As to `CS(=O)(=O)c1c([C@@H]2C[C@H]3CC[C@@H](C2)N3C(=O)CO)nc2c(-c3cnn(-c4ccccn4)c3)cnn2c1N` [Compound 3.124, 1-((1R,3s,5S)-3-(7-amino-6-(methylsulfonyl)-3-(1-(pyridin-2-yl)-1H-pyrazol-4-yl)pyrazolo[1,5-a]pyrimidin-5-yl)-8-azabicyclo[3.2.1]octan-8-yl)-2-hydroxyethanone], the IC50 in assay [1] (setting [3]) was 100 to 1000 nM; in assay [2] (setting [3]), 1000 to 10000 nM.
